Reference: US7579356B2, “Thia-tetraazaacenaphthylene kinase inhibitors” (Janssen Pharmaceutica NV, priority 2005, dated 2009)

target: T1, EGFR (Homo sapiens, UniProt P00533); experiment: EGFR Kinase Assay; format: biochemical; settings: GST-EGFR, ATP 5 μM
T1 construct: The intracellular portion of EGFR started at nucleotide 2189 (corresponding to amino acid 667) and ended at the termination codon; made in house; host or cells: Sf9 insect cells (baculovirus)
Description: The EGFR kinase used was a fusion of Glutathione-S-Transferase (GST) and a PCR amplified intracellular portion of EGFR (Accession Number NM_005228). The intracellular portion of EGFR started at nucleotide 2189 (corresponding to amino acid 667) and ended at the termination codon. The portion was PCR amplified with primers that added the lambda attB sequences to each end, recombined into an entry vector, then into a GST destination vector (as described in Gateway Technologies Manual by Invitrogen Corporation, Carlsbad, Calif.).
The destination vector was recombined in the DH10BAC strain of bacteria to produce a bacmid. The bacmid was transfected into Sf 9 cells and the supernatant containing the baculovirus was collected. The GSTEGFR protein was purified using large cultures of Sf 9 cells infected with stock virus. After an appropriate period of time, the cells were collected and lysed. The GSTEGFR was then purified from the lysate on Glutathione-Sepharose columns (as described by Amersham Biosciences, Buckinghamshire, United Kingdom).
The EGFR substrate was prepared by biotinylating polyGluTyr (128 mg) (Sigma, St. Louis, Mo.) in a 1×PBS buffer incubated together with a 12-fold molar excess of Sulfo-NHS-LC-Biotin on ice for at least 2 hrs. The free biotin was separated from the biotinylated polyGluTyr on a gel filtration column.
A mixture of a 10× kinase buffer (500 mM Tris at pH 8.0, 100 mM Magnesium Chloride and 1 mM Sodium Vanadate), DTT (1 mM final from 500 mM stock), ATP (5 μM final from 10 mM stock), biotinylated polyGluTyr (10 μg/μL stock), γ-^33P ATP (10 μCl/μL stock) and water was added to each well (for a total of 90 μL/well) of a Streptavidin Flashplate (Perkin Elmer, Wellesley, Mass.).
Test compound in 100% DMSO (2 μL) was added to the appropriate wells. Diluted GSTEGFR (1:300 dilution in 50 mM Tris at pH 8.0 and 0.1% bovine serum albumin) (10 μL) was added to the wells to initiate the reactions.
The plates were incubated at 30° C. for 1 hr with shaking. The reacted contents were removed and the plates were sequentially washed three times with a 1×PBS stop buffer (300 μL without Magnesium and Calcium) and 100 mM EDTA. After the final wash, the same stop buffer (200 μL) was added to the wells. The plates were then sealed and read on the TopCount scintillation counter.
Test compounds were assayed in triplicate at 16 concentrations at half-log dilutions starting at 200 uM. A maximum and minimum signal for the assay was determined on each plate. The percent inhibition of a test compound was calculated according to the formula: […]
For a series of test concentrations, the IC50 was derived by graphing percent inhibition against the log of the concentrations tested for a given compound. For those compounds without an IC50, the inhibition values in percent are shown at a test concentration of 2 μM. For compounds with multiple values, each value represents a separate assay result.

T1 sequence (P00533 669-1210 limits assumed): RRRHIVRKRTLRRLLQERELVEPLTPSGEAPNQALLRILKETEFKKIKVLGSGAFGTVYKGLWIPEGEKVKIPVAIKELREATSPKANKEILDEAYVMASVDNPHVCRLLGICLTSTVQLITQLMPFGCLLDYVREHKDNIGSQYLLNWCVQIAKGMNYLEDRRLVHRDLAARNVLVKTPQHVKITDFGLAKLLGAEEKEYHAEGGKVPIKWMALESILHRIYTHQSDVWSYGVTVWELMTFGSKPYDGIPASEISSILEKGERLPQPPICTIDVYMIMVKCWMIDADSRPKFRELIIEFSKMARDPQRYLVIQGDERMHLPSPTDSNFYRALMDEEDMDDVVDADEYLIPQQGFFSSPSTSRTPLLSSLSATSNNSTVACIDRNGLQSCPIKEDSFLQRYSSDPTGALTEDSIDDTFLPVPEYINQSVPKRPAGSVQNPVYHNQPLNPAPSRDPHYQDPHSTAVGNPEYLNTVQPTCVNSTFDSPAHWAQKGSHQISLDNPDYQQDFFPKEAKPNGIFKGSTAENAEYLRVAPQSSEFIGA

SMILES	IC50 [nM]
COc1ccc(NC(=O)c2sc3ncnc4c3c2NC(=O)N4c2ccc(F)c(Cl)c2)cc1OC [Cpd 2, 5-(3-chloro-4-fluoro-phenyl)-4-oxo-4,5-dihydro-3H-1-thia-3,5,6,8-tetraaza-acenaphthylene-2-carboxylic acid (3,4-dimethoxy-phenyl)-amide]	37
O=C(Nc1nccs1)c1sc2ncnc3c2c1NC(=O)N3c1ccc(F)c(Cl)c1 [Cpd 4, 5-(3-chloro-4-fluoro-phenyl)-4-oxo-4,5-dihydro-3H-1-thia-3,5,6,8-tetraaza-acenaphthylene-2-carboxylic acid thiazol-2-ylamide]	72
O=C(Nc1cccnc1)c1sc2ncnc3c2c1NC(=O)N3c1ccc(F)c(Cl)c1 [Cpd 5, 5-(3-chloro-4-fluoro-phenyl)-4-oxo-4,5-dihydro-3H-1-thia-3,5,6,8-tetraaza-acenaphthylene-2-carboxylic acid pyridin-3-ylamide]	69
O=C(Nc1ccc(NCCCN2CCOCC2)nc1)c1sc2ncnc3c2c1NC(=O)N3c1ccc(F)c(Cl)c1 [Cpd 6, 5-(3-chloro-4-fluoro-phenyl)-4-oxo-4,5-dihydro-3H-1-thia-3,5,6,8-tetraaza-acenaphthylene-2-carboxylic acid [6-(3-morpholin-4-yl-propylamino)-pyridin-3-yl]-amide]	83
O=C1Nc2c(-c3ccccc3)sc3ncnc(c23)N1c1ccc(F)c(Cl)c1 [Cpd 8, 5-(3-chloro-4-fluoro-phenyl)-2-phenyl-3H,5H-1-thia-3,5,6,8-tetraaza-acenaphthylen-4-one]	542
O=C(Nc1ccc(CNC[C@H]2CCCO2)cc1)c1sc2ncnc3c2c1NC(=O)N3c1ccc(F)c(Cl)c1 [Cpd 17, 5-(3-chloro-4-fluoro-phenyl)-4-oxo-4,5-dihydro-3H-1-thia-3,5,6,8-tetraaza-acenaphthylene-2-carboxylic acid [4-({[(2R)-tetrahydro-furan-2-ylmethyl]-amino}-methyl)-phenyl]-amide]	44
COc1cc(NC(=O)c2sc3ncnc4c3c2NC(=O)N4c2ccc(F)c(Cl)c2)ccc1O [Cpd 19, 5-(3-chloro-4-fluoro-phenyl)-4-oxo-4,5-dihydro-3H-1-thia-3,5,6,8-tetraaza-acenaphthylene-2-carboxylic acid (4-hydroxy-3-methoxy-phenyl)-amide]	43
COc1cc(NC(=O)c2sc3ncnc4c3c2NC(=O)N4c2ccc(F)c(Cl)c2)ccc1OCCN1CCOCC1 [Cpd 20, 5-(3-chloro-4-fluoro-phenyl)-4-oxo-4,5-dihydro-3H-1-thia-3,5,6,8-tetraaza-acenaphthylene-2-carboxylic acid [3-methoxy-4-(2-morpholin-4-yl-ethoxy)-phenyl]-amide]	30
COc1cc(NC(=O)c2sc3ncnc4c3c2NC(=O)N4c2ccc(F)c(Cl)c2)ccc1OCCCN1CCCCC1 [Cpd 21, 5-(3-chloro-4-fluoro-phenyl)-4-oxo-4,5-dihydro-3H-1-thia-3,5,6,8-tetraaza-acenaphthylene-2-carboxylic acid [3-methoxy-4-(3-piperidin-1-yl-propoxy)-phenyl]-amide]	27
COc1cc(NC(=O)c2sc3ncnc4c3c2NC(=O)N4c2ccc(F)c(Cl)c2)ccc1OCCC1CCNCC1 [Cpd 22, 5-(3-chloro-4-fluoro-phenyl)-4-oxo-4,5-dihydro-3H-1-thia-3,5,6,8-tetraaza-acenaphthylene-2-carboxylic acid [3-methoxy-4-(2-piperidin-4-yl-ethoxy)-phenyl]-amide]	42
NCc1ccc(NC(=O)c2sc3ncnc4c3c2NC(=O)N4c2ccc(F)c(Cl)c2)cn1 [Cpd 23, 5-(3-chloro-4-fluoro-phenyl)-4-oxo-4,5-dihydro-3H-1-thia-3,5,6,8-tetraaza-acenaphthylene-2-carboxylic acid (6-aminomethyl-pyridin-3-yl)-amide]	27
C#Cc1cccc(N2C(=O)Nc3c(C(=O)Nc4ccc(CNC5CCNCC5)cc4)sc4ncnc2c34)c1 [Cpd 24, 5-(3-ethynyl-phenyl)-4-oxo-4,5-dihydro-3H-1-thia-3,5,6,8-tetraaza-acenaphthylene-2-carboxylic acid [4-(piperidin-4-ylaminomethyl)-phenyl]-amide]	126
COc1cc(N2C(=O)Nc3c(C(=O)Nc4ccc(CN5CCCCC5)cc4)sc4ncnc2c34)c(Cl)c(OC)c1OC [Cpd 26, 5-(2-chloro-3,4,5-trimethoxy-phenyl)-4-oxo-4,5-dihydro-3H-1-thia-3,5,6,8-tetraaza-acenaphthylene-2-carboxylic acid (4-piperidin-1-ylmethyl-phenyl)-amide]	9260

More lines, now with the values ahead:

IC50 [nM]	SMILES
41500	COc1cc(NC(=O)c2sc3ncnc4c3c2NC(=O)N4c2cc(OC)c(OC)c(OC)c2)ccc1OCCN1CCOCC1 [Cpd 27, 4-oxo-5-(3,4,5-trimethoxy-phenyl)-4,5-dihydro-3H-1-thia-3,5,6,8-tetraaza-acenaphthylene-2-carboxylic acid [3-methoxy-4-(2-morpholin-4-yl-ethoxy)-phenyl]-amide]
1370	O=C1Nc2c([N+](=O)[O-])sc3ncnc(c23)N1c1ccc(F)c(Cl)c1 [Cpd 156, 5-(3-chloro-4-fluoro-phenyl)-2-nitro-3H,5H-1-thia-3,5,6,8-tetraaza-acenaphthylen-4-one]
371	Nc1sc2ncnc3c2c1NC(=O)N3c1ccc(F)c(Cl)c1 [Cpd 157, 2-amino-5-(3-chloro-4-fluoro-phenyl)-3H,5H-1-thia-3,5,6,8-tetraaza-acenaphthylen-4-one]
2430	COc1ccc(CC(=O)Nc2sc3ncnc4c3c2NC(=O)N4c2ccc(F)c(Cl)c2)cc1OC [Cpd 158, N-[5-(3-chloro-4-fluoro-phenyl)-4-oxo-4,5-dihydro-3H-1-thia-3,5,6,8-tetraaza-acenaphthylen-2-yl]-2-(3,4-dimethoxy-phenyl)-acetamide]
1040	COc1ccc(C(=O)Nc2sc3ncnc4c3c2NC(=O)N4c2ccc(F)c(Cl)c2)cc1OC [Cpd 159, N-[5-(3-chloro-4-fluoro-phenyl)-4-oxo-4,5-dihydro-3H-1-thia-3,5,6,8-tetraaza-acenaphthylen-2-yl]-3,4-dimethoxy-benzamide]

same assay, conditions: test concentration of 2 μM; compounds without an IC50; read-out: EGFR inhibition in percent

inhibition at 2 µM [%]	SMILES
15	COc1cc(N2C(=O)Nc3c(C(=O)Nc4ccc(CN5CCCCC5)cc4)sc4ncnc2c34)cc(OC)c1OC [Cpd 28, 5-(3,4,5-trimethoxy-phenyl)-4-oxo-4,5-dihydro-3H-1-thia-3,5,6,8-tetraaza-acenaphthylene-2-carboxylic acid (4-piperidin-1-ylmethyl-phenyl)-amide]
